Residues, ends and D or L forms follow the SMILES beside them.
Tested on: A549 lung adenocarcinoma cells
Settings: A549, 200 µM, 24 h; SWATH; n = 9 per group
Description: In brief, A549 lung adenocarcinoma cells were seeded at a density of 1 × 10^5 cells/well in a 24‐well plate. After overnight incubation, the media were changed with fresh media with or without 200 µM ALA‐A2 and incubated at 37 °C in 5%CO2 for 24 h. The cells were washed twice with PBS before lysis with Laemmli lysis buffer (62.5 mM Tris‐HCl, pH 6.8, 10% v/v glycerol, 2% w/v SDS, and 2.5% v/v beta‐mercaptoethanol). Total protein was quantified using the Bradford protein assay (Bio‐Rad, Hercules, USA). 10 µg of protein was resolved by 12% SDS–PAGE before staining with Coomassie brilliant blue G‐250, and the gel was cut into small pieces for in‐gel tryptic digestion. An amount of peptide sample corresponding to 2.5 µg of total protein was resolved in an Eksigent nanoLC ultra nanoflow high performance liquid chromatography in tandem with a TripleTOF 6600+ mass spectrometer (ABSciex, Toronto, Canada) set for information‐dependent acquisition (IDA) and DIA modes. The peptides were loaded onto a C18 column trap (Nano Trap RP‐1, 3 µm 120 Å, 10 mm × 0.075 mm; Phenomenex, CA, USA) at a flow rate of 3 µL min^−1 of 0.1% formic acid in water for 10 min to desalt and concentrate the sample, which was then resolved by HPLC using a stationary phase of a C18 analytical column (bioZen Peptide Polar C18 nanocolumn, 75 µm × 15 cm, particle size 3 µm, 120 Å; Phenomenex) with mobile phase gradients at a flow rate of 300 nL min^−1 of 3–30% acetonitrile/0.1% formic acid for 60 min, 30–40% acetonitrile/0.1% formic acid for 10 min, 40–80% acetonitrile/0.1% formic acid for 2 min, 80% acetonitrile/0.1% formic acid for 6 min, 80–3% acetonitrile/0.1% formic acid for 2 min, and 3% acetonitrile/0.1% formic acid for 25 min. The eluate was ionized and sprayed into the mass spectrometer using OptiFlow Turbo V Source (Sciex). Ion source gas 1, ion source gas 2, and curtain gas were set at 19, 0, and 25 vendor arbitrary units, respectively. The interface heater temperature was 150 °C and ion spray voltage was 3.3 kV.
Each cycle performed one time of flight (TOF) scan (250 ms accumulation time, 350–1250 m/z window with a charge state of +2) followed by IDA of the 100 most intense ions, while the minimum MS signal was set to 150 counts. The MS/MS scan was operated in high sensitivity mode with 50 ms accumulation time and 50 ppm mass tolerance. Former MS/MS candidate ions were excluded for a period of 12 s after their first occurrence to reduce the redundancy of identified peptides. DIA mode was performed in a range of 350–1500 m/z using a predefined mass window of 7‐m/z with an overlap of 1‐m/z for 157 transmissible windows. MS scan was set at 2044 cycles, where each cycle performed one TOF‐MS scan type (50 ms accumulation time across 100–1500 precursor mass range) acquired in every cycle for a total cycle time of 3.08 s. MS spectra of 100–1500 m/z were collected with an accumulation time of 96 ms per SWATH window width. Resolution for MS1 was 35 000 and SWATH‐MS2 scan was 30 000. Rolling collision energy mode with collision energy spread of 15 eV was applied. The IDA and DIA data (.wiff) were recorded by Analyst‐TF v.1.8 software (ABSciex).
A total of 18 wiff files of IDA experiments (two groups; three biological replicates per group; three technical replicates per biological sample) were combined and searched using Protein Pilot v.5.0.2.0 software (ABSciex) against the Swiss‐Prot database (UniProtKB 2022_01) Homo sapiens (20385 proteins in database) with the searching parameters as follows; alkylation on cysteine by iodoacetamide, trypsin enzymatic digestion, one missed cleavage allowed, monoisotopic mass, and 1% false discovery rate.

SMILES: CC(C)C[C@H](NC(=O)[C@@H](N)CCCCN)C(=O)N[C@@H](Cc1c[nH]c2ccccc12)C(=O)N[C@@H](CS)C(=O)N[C@@H](CCCCN)C(=O)N[C@@H](CO)C(=O)N[C@@H](CO)C(=O)N[C@@H](CCC(N)=O)C(=O)N[C@H](C(=O)N1CCC[C@H]1C(=O)N[C@@H](CCC(N)=O)C(=O)N[C@@H](CO)C(=O)N[C@@H](CCCNC(=N)N)C(=O)O)C(C)C [ALA‐A2] (H-KLWCKSSQVPQSR-OH)
- Fold‐change [treated/ untreated]: 40S ribosomal protein SA (RSSA, P08865): 0.25
- Fold‐change [treated/ untreated]: 60S ribosomal protein L6 (RL6, Q02878): 2.87
- Fold‐change [treated/ untreated]: Actin, cytoplasmic 2 (ACTG, P63261): 0.09
- Fold‐change [treated/ untreated]: Aldo‐keto reductase family 1 member B10 (AK1BA, O60218): 0.29
- Fold‐change [treated/ untreated]: Annexin A4 (ANXA4, P09525): 2.98
- Fold‐change [treated/ untreated]: Annexin A7 (ANXA7, P20073): 3.29
- Fold‐change [treated/ untreated]: Chloride intracellular channel protein 1 (CLIC1, O00299): 3.02
- Fold‐change [treated/ untreated]: Elongation factor 1‐alpha‐like 3 (EF1A3, Q5VTE0): 0.15
- Fold‐change [treated/ untreated]: Elongation factor 1‐gamma (EF1G, P26641): 0.31
- Fold‐change [treated/ untreated]: Endoplasmin (ENPL, P14625): 0.38
- Fold‐change [treated/ untreated]: Glyceraldehyde‐3‐phosphate dehydrogenase (G3P, P04406): 0.32
- Fold‐change [treated/ untreated]: Heat shock 70 kDa protein 8 (HSPA8, P11142): 0.25
- Fold‐change [treated/ untreated]: Heat shock protein HSP90 alpha (HSP90AA1, P07900): 0.26
- Fold‐change [treated/ untreated]: Heat shock protein HSP90 beta (HSP90AB1, P08238): 0.40
- Fold‐change [treated/ untreated]: Heterogeneous nuclear ribonucleoprotein A/B (ROAA, Q99729): 2.35
- Fold‐change [treated/ untreated]: Heterogeneous nuclear ribonucleoproteins A2/B1 (ROA2, P22626): 0.25
- Fold‐change [treated/ untreated]: Histone H1.3 (H13, P16402): 0.32
- Fold‐change [treated/ untreated]: Histone H2A type 2‐A (H2A2A, Q6FI13): 0.48
- Fold‐change [treated/ untreated]: Histone H4 (H4, P62805): 0.26
- Fold‐change [treated/ untreated]: Hsp70‐binding protein 1 (HPBP1, Q9NZL4): 0.48
- Fold‐change [treated/ untreated]: Importin‐5 (IPO5, O00410): 2.22
- Fold‐change [treated/ untreated]: Junction plakoglobin (PLAK, P14923): 2.05
- Fold‐change [treated/ untreated]: Keratin, type I cytoskeletal 18 (K1C18, P05783): 0.35
- Fold‐change [treated/ untreated]: Keratin, type I cytoskeletal 19 (K1C19, P08727): 0.34
- Fold‐change [treated/ untreated]: Leucine‐rich PPR motif‐containing protein (LPPRC, P42704): 2.06
- Fold‐change [treated/ untreated]: Neurofibromin (NF1, P21359): 0.07
- Fold‐change [treated/ untreated]: Peroxiredoxin‐1 (PRDX1, Q06830): 0.26
- Fold‐change [treated/ untreated]: Pyruvate kinase PKM (KPYM, P14618): 0.43
- Fold‐change [treated/ untreated]: RNA‐binding protein Raly (RALY, Q9UKM9): 3.57
- Fold‐change [treated/ untreated]: Serine/arginine‐rich splicing factor 3 (SRSF3, P84103): 0.33
- Fold‐change [treated/ untreated]: TAR DNA‐binding protein 43 (TADBP, Q13148): 4.07
- Fold‐change [treated/ untreated]: Threonine‐tRNA ligase 1 (SYTC, P26639): 2.61
- Fold‐change [treated/ untreated]: Transaldolase (TALDO, P37837): 0.43
- Fold‐change [treated/ untreated]: Transketolase (TKT, P29401): 0.35
- Fold‐change [treated/ untreated]: Tubulin beta chain (TBB5, P07437): 0.27
- Fold‐change [treated/ untreated]: T‐complex protein 1 subunit delta (TCPD, P50991): 2.39
- Fold‐change [treated/ untreated]: T‐complex protein 1 subunit gamma (TCPG, P49368): 0.46
- Fold‐change [treated/ untreated]: Ubiquitin‐60S ribosomal protein L40 (UBA52, P62987): 0.41
